Test results: patent US7582620B2, “Use of mannan from saccharomyces cerevisiae for the treatment of asthma” (The University of Tennessee Foundation, priority 2003, dated 2009)

Experiments:
[1] = system: bovine airway smooth muscle cells; format: cell-based
Method: (§1) Cell counts and cytotoxicity are assessed by tetrazolium salt reduction (MTT) […] assay in parallel experiments. Millipore filtered MTT (5 mg/ml, Sigma Chemical Co., St Louis, Mo.) dissolved in phosphate buffered saline (PBS, pH 7.2) is added to the microtiter wells (10 μl/well, 20 μl/16 mm well) at the end of the experimental period. After incubating at 37° C. for 4 h, media is removed from the microtiter wells and acidified with 0.04 M HCl. 2-propane/isopropanol is added to the wells at 200 μl/well or 400 μl/16 mm well for human airway smooth muscle cells. The plates are left at room temperature for 30 min and optical density is obtained by an ELISA reader (EL340 Microplate, Bio-Tek instruments, Winooski, Vt.) at 570 nm wave length. The results obtained by MTT assay correlate well with the viable cell counts obtained by the Trypan blue method using hemocytometer (Sigma cell count instruction manual). Cytotoxicity also is measured by LDH assays (Sigma). Release of LDH greater than 5% is considered cytotoxic.
Antisense human airway smooth muscle cell mannose receptor morpholino DNA oligonucleotides (M-oligos, 25 mer, 5 μM) delivered by the scrape method inhibited b hexosaminidase-induced mitogenesis in bovine ASMC by 37% compared to no inhibition by sense M-oligos (data not shown). […]

[2] = system: human airway smooth muscle cells; assay: Mitogenic effect of growth factors in human airway smooth muscle cells (MTT); format: cell-based; settings: for mitogenic response after repeated passages: human ASMC of the same batch, p10
Method: as §1
[…] Cells were stimulated with Hex A (50 nM), PDGF (0.1 nM), EGF (100 nM), bFGF (5 nM), thrombin (Thr, 1 unit/ml), FBS (5% vol/vol), or vehicle (V; PBS for Hex; 0.1% BSA in 4 mM HCl for PDGF; 0.1% BSA for EGF and bFGF; unstimulated for Thr and FBS). Viable cell numbers were assessed by MTT assays after 42 h stimulation. […] Experiments were repeated three times.

[3] = system: human airway smooth muscle cells; assay: PDGF-induced mitogenesis in human airway smooth muscle cells (MTT); format: cell-based; settings: mannan 0.1-1 mg/ml 30 min before 0.1 nM PDGF, 42 h, human ASMC
Method: as §1
(§2) Human airway smooth muscle cells in 24-well plates were starved for 18h in medium containing 0.1% FBS. Mannan in concentrations ranging from 0.1-1 mg/ml (Sigma) was added to the cells 30 min prior to the addition of 50 nM Hex A, 0.1 nM PDGF or vehicle (PBS for Hex or 0.1% BSA in 4 mM HCl for PDGF). Viable cell numbers were assessed by MTT assays after 42h stimulation. […]

[4] = system: bovine airway smooth muscle cells; assay: Hex A-induced mitogenesis in bovine airway smooth muscle cells; format: cell-based; settings: bovine ASMC
Method: Measurement of ^3H-thymidine incorporation as an assessment of the rate of DNA synthesis is performed as described previously (Lew et al., 1994) with a modification. After the cells reach confluency and contact-inhibited in microtiter wells (16 mm wells for human airway smooth muscle cells), the medium is replaced with medium M199 (Cellgro, Mediatech, Washington D.C.) or SmBM (for huASMC) containing 0.1% vol/vol fetal bovine serum (FBS, Hyclone Lab. Inc., Logan, Utah) 48 h before exposure to test substances. ^3H-thymidine (0.5 μCi/well or 2.5 μC/16 mm well, sp act 10 Ci/mmol, Amersham Corp., Arlington Heights, Ill.) is added to the cells 18 h after the addition of test substances and cells are harvested 18 h later. Radioactivity is quantified in a liquid scintillation counter (2000 CA; Packard Instrument Co., Downers Grove, Ill.). Experiments are performed in quadruplicate and repeated 3 times.
Mannan, a polymer of mannose, is a specific mannose receptor blocker.

[5] = system: OVA-sensitized wild type FVB/N mice
Method: Enhanced pause (Penh) is measured using the software provided by the manufacturer.
Wild type FVB/N mice, ages 6-8 weeks, were immunized with ovalbumin (20 μg in Imject®-Alum, i.p.) on days 0, 14, 21 as described in Example 6. Non-immunized mice received i.p. injection of Alum only. Thirty minutes before each of the three ovalbumin challenges on days 28-30, the mice were pretreated via aerosol with 100 or 300 mg yeast mannan in 2 ml dH2O or 5 EU E. Coli endotoxin (Sigma Chemical Co., St Louis, Mo.) in 2 ml saline. Experiments were performed in quadruplicate and repeated four times.
Measurements of airway hyper-reactivity (AHR) and broncho alveolar lavage were performed on day 31.
Methacholine sensitivity and reactivity were measured by Penh parameter in spontaneously breathing animals on day 31 (FIG. 9).

[6] = system: TNFα secretion, Hex secretion in BAL fluids; assay: TNFα and Hex secretion in BAL fluids, OVA-sensitized murine model; format: in vivo, mouse; settings: aerosolized mannan pretreatment, day 31
Method: The activities of Hex are determined as previously described (Lew et al., 1991). Samples (50 μl) are incubated with 100 μl of pre-warmed buffered substrate (5 mM p-nitrophenyl-2-deoxy-β-D-glucosaminide in 0.1 M citrate/phoshate buffer, pH 4.5) in 96-well microtirter plates for 1 h at 37° C. After incubation, the reactions are stopped by the addition of 100 μl of 0.5 M boric acid/NaOH buffer, pH 10.6. p-nitrophenol released by the hydrolytic activity is quantified spectrophotometrically by using a Biotek ELISA reader at 405 nm wave length. The Beer-Lambert Law and molecular extinction coefficient for p-nitrophenol (E=18,700) are applied to obtain units of specific activity expressed as micromoles of substrate cleaved/h/10^6 cells. Purified Hex (Sigma) is tested in each assay as a positive internal control.
Immediately after measuring MCh responsiveness, animals are anesthetized with Ketamine/Xylazine at 50/50 mg/kg and lungs are lavaged once via tracheal tube with 1 ml phosphate buffered saline (PBS, 37° C.). The broncho alveolar lavage_fluid is analyzed for Hex activity and differential cell count. Hex activity in broncho alveolar lavage_fluids is 262±33 μmoles/hr in immunized mice versus 92±12 in non-immunized mice.
Experiments were performed in quadruplicate and repeated four times.
Histopathology and immunohistology were performed on lungs and airways.

[7] = system: OVA-sensitized and -challenged mice; assay: Histopathology of trachea and lung, OVA-sensitized murine model; format: in vivo, mouse
[8] = system: human airway smooth muscle cells; assay: Hex A-induced mitogenesis in human airway smooth muscle cells (MTT); format: cell-based; settings: mannan 0.1-1 mg/ml 30 min before 50 nM Hex A, 42 h, human ASMC
Method: as §1, §2

[9] = system: naive wild type FVB/N mice; assay: Airway hyperreactivity after aerosolized Hex in naive mice (methacholine challenge, Penh); format: in vivo, mouse; settings: aerosolized human Hex A 1 mg every other day for 2 weeks, day 15
Method: Six week old FVB/N mice were treated with aerosolized human Hex A (1 mg) or vehicle (PBS) every other day for 2 weeks. On day 15, lung physiology was non-invasively assessed by methacholine (Mch) challenge and changes in pulmonary resistance (pause enhancement, Penh).

Ethoxylated polyethylenimine [EPEI]
concentration beyond which the delivery system was cytotoxic [1]: > 3 μl/ml

PDGF [reference compound]
mitogenic response after repeated passages [2]: responded poorly

mannan
inhibitory effect on PDGF-induced mitogenesis [3]: lack of inhibitory effect
inhibition of Hex A-induced mitogenesis [4]: inhibited by mannan in a concentration dependent manner
effect on OVA-induced airway hyper-reactivity (Penh) ([5]; aerosol 30 min before each OVA challenge on days 28-30 (mannan 100 or 300 mg, endotoxin 5 EU), measured on day 31): Blocks Airway Hyper-Reactivity
duration of the inhibitory effect ([5]; after the last dose of aerosolized yeast mannan): at least four
general condition of the treated mice ([5]; mouse, in vivo): remained healthy and active
induction of Hex secretion in BAL fluids [6]: did not induce
inhibition of TNFα secretion in BAL fluids [6]: 85-100%
trachea histology (H&E): trachealis muscle and epithelial layer ([7]; aerosolized mannan 300 mg): Trachealis muscle has normal appearance and the epithelial layer is intact
peribronchiolar cellular infiltration (H&E, lung) ([7]; mannan 300 mg pretreated mouse): marked decrease in peribronchiolar cellular infiltration in 3 out of 4 bronchioles
inhibition of Hex A-induced mitogenesis [8]: inhibited by mannan in a concentration dependent manner

thrombin [reference compound]
mitogenic response after repeated passages [2]: responded poorly

B1: Hex A: human placental b hexosaminidase A (Sigma), lysosomal hydrolase, mannosyl-rich ligand of ASM-MR (protein)
chain 1: TLEKNVLVVSVVTPGCNQLPTLESVENYTLTINDDQCLLLSETVWGALRGLETFSQLVWKSAEGTFFINKTEIEDFPRFPHRGLLLDTSRHYLPLSSILDTLDVMAYNKLNVFHWHLVDDPSFPYESFTFPELMRKGSYNPVTHIYTAQDVKEVIEYARLRGIRVLAEFDTPGHTLSWGPGIPGLLTPCYSGSEPSGTFGPVNPSLNNTYEFMSTFFLEVSSVFPDFYLHLGGDEVDFTCWKSNPEIQDFMRKKGFGEDFKQLESFYIQTLLDIVSSYGKGYVVWQEVFDNKVKIQPDTIIQVWREDIPVNYMKELELVTKAGFRALLSAPWYLNRISYGPDWKDFYIVEPLAFEGTPEQKALVIGGEACMWGEYVDNTNLVPRLWPRAGAVAERLWSNKLTSDLTFAYERLSHFRCELLRRGVQAQPLNVGFCEQEFEQT
chain 2: TQVQQLLVSITLQSECDAFPNISSDESYTLLVKEPVAVLKANRVWGALRGLETFSQLVYQDSYGTFTINESTIIDSPRFSHRGILIDTSRHYLPVKIILKTLDAMAFNKFNVLHWHIVDDQSFPYQSITFPELSNKGSYSLSHVYTPNDVRMVIEYARLRGIRVLPEFDTPGHTLSWGKGQKDLLTPCYSRQNKLDSFGPINPTLNTTYSFLTTFFKEISEVFPDQFIHLGGDEVEFKCWESNPKIQDFMRQKGFGTDFKKLESFYIQKVLDIIATINKGSIVWQEVFDDKAKLAPGTIVEVWKDSAYPEELSRVTASGFPVILSAPWYLDLISYGQDWRKYYKVEPLDFGGTQKQKQLFIGGEACLWGEYVDATNLTPRLWPRASAVGERLWSSKDVRDMDDAYDRLTRHRCRMVERGIAAQPLYAGYCNHENM
airway hyperreactivity (Penh, methacholine challenge) [9]: increased airway hyperreactivity
mitogenic effect (viable cell numbers, MTT) ([2]; Hex A 50 nM, 42 h stimulation, serum-starved cells, passage #5): comparable to that of PDGF and fetal bovine serum
mitogenic response after repeated passages [2]: responded poorly
